Results on 33 compounds are retold here after patent publication US7732609B2, “5-(arylsulfonyl)-pyrazolopiperidines” (Elan Pharmaceuticals, Inc., priority 2005, dated 2010).

In this experiment the target is T1, gamma-secretase (Homo sapiens, UniProt P49768).
T1 construct: The assay used a partially purified extract of IMR-32 cell membranes as the gamma-secretase enzyme preparation; endogenous in cells; host or cells: IMR-32 cell membranes (partially purified extract)
Description: Gamma-secretase APP enzyme assay (MBP-C125 Swe cleavage at Aβ40 site, sandwich ELISA). The settings on record: IMR-32 cell membrane extract as enzyme; MBP-C125swe substrate; 2 h at 37° C; read-out: γAPP. It is filed as biochemical. An excerpt: The gamma-secretase APP enzyme assay was designed to measure the specific proteolytic cleavage of an APP substrate (MBP-C125 Swe fusion protein) at the Aβ40 site. The assay used a partially purified extract of IMR-32 cell membranes as the gamma-secretase enzyme preparation and a recombinant fusion protein containing the C-terminal 125 amino acids of the Swedish variant of the APP (MBP-C125swe) as the substrate. This assay involved two steps beginning with the enzymatic reaction generating a cleavage product that was captured with an immobilized antibody specific for the neo-epitope Aβ40 site. The captured cleavage product was then detected in a sandwich ELISA assay with a biotinylated reporter antibody that is specific to Aβ (17-28). Streptavidin-linked alkaline phosphatase was then added that would generate a fluorescent signal proportional to the amount of cleavage product. This assay was used to discover small molecule inhibitors of gamma-secretase.
Briefly, a 149 mg/ml solution of BIGCHAP detergent was made with water at 42° C. and then rotated for 30 minutes at the same temperature. This warmed solution of BigCHAPS(N,N-Bis(3-D-gluconamidopropyl)cholamide) detergent was used to dissolve Brain Extract Type-V (lipid containing a minimum of 40% phosphatidylethanolamine) from Sigma (St. Louis, Mo.) to a concentration of 8 mg/ml. This solution containing BigCHAPS and lipid at 8 mg/ml is then diluted to 0.53 mg/ml lipid with a pre-warmed solution of Hepes and sodium chloride. This final solution containing Hepes buffer, sodium chloride, BigCHAPS detergent and lipid is used to create working solutions of both gamma-secretase (25 Units) and the MBP-C125 substrate (0.05 mg/ml).
Gamma-secretase was then added to a 96-well micro-titre plate and then incubated with various concentrations of inhibitor for 30 minutes at 37° C. MBPC125 substrate was then added to initiate the reaction that would run for two hours at 37° C. The reaction was quenched with the addition of SDS to a final concentration of 0.1% and then 100 μl of the reaction mixture was transferred to a capture ELISA plate and incubated overnight at 4° C. Detection of the cleavage product was performed using a standard sandwich ELISA assay and quantified using a six point standard curve.
As to `O=S(=O)(c1ccc(Cl)cc1)N1Cc2c[nH]nc2CC1c1cncnc1` (single isomer, unassigned) [5-(4-chlorophenylsulfonyl)-6-(pyrimidin-5-yl)-4,5,6,7-tetrahydro-1H-pyrazolo[4,3-c]pyridine], the IC50 was less than 50 nM.
Regarding `O=S(=O)(c1ccc(Cl)cc1)N1CCc2n[nH]cc2C1c1nccs1` (stereo not drawn) [2-(5-(4-chlorophenylsulfonyl)-4,5,6,7-tetrahydro-2H-pyrazolo[4,3-c]pyridin-4-yl)thiazole], the IC50 was less than 50 nM.
With `O=S(=O)(c1ccc(Cl)cc1)N1Cc2c[nH]nc2CC1c1nccs1` (stereo not drawn) [2-(5-(4-chlorophenylsulfonyl)-4,5,6,7-tetrahydro-2H-pyrazolo[4,3-c]pyridin-6-yl)thiazole], the IC50 was in the range of 150 to 300 nM.
In the case of `O=S(=O)(c1ccc(Cl)cc1)N1CCc2[nH]ncc2C1c1nc2ccccc2[nH]1` (stereo not drawn) [4-(1H-Benzoimidazol-2-yl)-5-(4-chloro-benzenesulfonyl)-4,5,6,7-tetrahydro-1H-pyrazolo[4,3-c]pyridine], the IC50 was in the range of 150 to 300 nM.
Consider `O=S(=O)(c1ccc(Cl)cc1)N1CCc2ncccc2C1c1ccc(Cl)cc1` (stereo not drawn) [5-(4-chlorophenyl)-6-(4-chlorophenylsulfonyl)-5,6,7,8-tetrahydro-1,6-naphthyridine], for which the IC50 is less than 50 nM.
For `CCC1c2cn[nH]c2CC(CO)N1S(=O)(=O)c1ccc(Cl)cc1` (stereo not drawn) [5-(4-chlorophenylsulfonyl)-4-ethyl-4,5,6,7-tetrahydro-1H-pyrazolo[4,3-c]pyridin-6-yl)methanol], the IC50 was less than 50 nM.
On to `O=S(=O)(c1ccc(Cl)cc1)N1Cc2c[nH]nc2CC1c1cc(F)cc(F)c1` (stereo not drawn) [5-(4-chlorophenylsulfonyl)-6-(3,5-difluorophenyl)-4,5,6,7-tetrahydro-1H-pyrazolo[4,3-c]pyridine], for which the IC50 is less than 50 nM.
Regarding `O=S(=O)(c1ccc(Cl)cc1)N1Cc2cn[nH]c2CC1c1cccc(F)c1` (stereo not drawn) [5-(4-chlorophenylsulfonyl)-6-(3-fluorophenyl)-4,5,6,7-tetrahydro-1H-pyrazolo[4,3-c]pyridine], the IC50 was less than 50 nM.
The same measure for `O=S(=O)(c1ccc(Cl)cc1)N1Cc2cn[nH]c2CC1c1ccc(F)cc1` (stereo not drawn) [5-(4-chlorophenylsulfonyl)-6-(4-fluorophenyl)-4,5,6,7-tetrahydro-1H-pyrazolo[4,3-c]pyridine]: less than 50 nM.
For `O=S(=O)(c1ccc(Cl)cc1)N1Cc2cn[nH]c2CC1c1cccnc1` (stereo not drawn) [5-(4-chlorophenylsulfonyl)-6-(pyridin-3-yl)-4,5,6,7-tetrahydro-1H-pyrazolo[4,3-c]pyridine], the IC50 is 50 to 150 nM.
As for `O=S(=O)(c1ccc(Cl)cc1)N1Cc2cn[nH]c2CC1c1ccncc1` (stereo not drawn) [5-(4-chlorophenylsulfonyl)-6-(pyridin-4-yl)-4,5,6,7-tetrahydro-1H-pyrazolo[4,3-c]pyridine], the IC50 was in the range of 150 to 300 nM.
As for `CC(C)C1Cc2n[nH]cc2CN1S(=O)(=O)c1ccc(Cl)cc1` (stereo not drawn) [5-(4-chlorophenylsulfonyl)-6-isopropyl-4,5,6,7-tetrahydro-1H-pyrazolo[4,3-c]pyridine], the IC50 is less than 50 nM.
With `O=S(=O)(c1ccc(Cl)cc1)N1Cc2c[nH]nc2CC1c1ccccc1` (stereo not drawn) [5-(4-chlorophenylsulfonyl)-6-phenyl-4,5,6,7-tetrahydro-1H-pyrazolo[4,3-c]pyridine], the IC50 was less than 50 nM.
As for `O=S(=O)(c1ccc(Cl)s1)N1Cc2cn[nH]c2CC1c1ccccc1` (stereo not drawn) [5-(5-chlorothiophen-2-ylsulfonyl)-6-phenyl-4,5,6,7-tetrahydro-1H-pyrazolo[4,3-c]pyridine], the figure is less than 50 nM.
Consider `O=S(=O)(c1ccc(Cl)cc1)N1Cc2c(C(F)(F)F)n[nH]c2CC1c1ccc(Cl)cc1` (stereo not drawn) [6-(4-chlorophenyl)-5-(4-chlorophenylsulfonyl)-3-(trifluoromethyl)-4,5,6,7-tetrahydro-1H-pyrazolo[4,3-c]pyridine], for which the IC50 was 150 to 300 nM.
Consider `O=S(=O)(c1ccc(Cl)cc1)N1Cc2c[nH]nc2CC1Cc1ccccc1` (stereo not drawn) [6-benzyl-5-(4-chlorophenylsulfonyl)-4,5,6,7-tetrahydro-1H-pyrazolo[4,3-c]pyridine], for which the IC50 was in the range of 50 to 150 nM.
On to `O=S(=O)(c1ccc(Cl)cc1)N1Cc2cccnc2CC1c1ccc(Cl)cc1` (stereo not drawn) [7-(4-chlorophenyl)-6-(4-chlorophenylsulfonyl)-5,6,7,8-tetrahydro-1,6-naphthyridine], for which the IC50 fell in the range of 150 to 300 nM.
As for `CC[C@@H]1c2c[nH]nc2C[C@H](c2ccc(Cl)cc2)N1S(=O)(=O)c1ccc(Cl)cc1` [(4R,6R)-6-(4-chlorophenyl)-5-(4-chlorophenylsulfonyl)-4-ethyl-4,5,6,7-tetrahydro-1H-pyrazolo[4,3-c]pyridine], the IC50 was less than 50 nM.
Take `CC[C@H]1Cc2n[nH]cc2[C@@H](CC)N1S(=O)(=O)c1ccc(F)cc1` [(4R,6S)-4,6-diethyl-5-(4-fluorophenylsulfonyl)-4,5,6,7-tetrahydro-2H-pyrazolo[4,3-c]pyridine]: the IC50 was less than 50 nM.
The same measure for `CC[C@H]1Cc2[nH]ncc2[C@@H](CC)N1S(=O)(=O)c1ccccn1` [(4R,6S)-4,6-diethyl-5-(pyridin-2-ylsulfonyl)-4,5,6,7-tetrahydro-1H-pyrazolo[4,3-c]pyridine]: 50 to 150 nM; for `CC[C@H]1Cc2n[nH]cc2[C@@H](c2ccc(Cl)cc2)N1S(=O)(=O)c1ccc(Cl)cc1` [(4R,6S)-4-(4-chlorophenyl)-5-(4-chlorophenylsulfonyl)-6-ethyl-4,5,6,7-tetrahydro-1H-pyrazolo[4,3-c]pyridine]: less than 50 nM.
With `CC[C@H]1Cc2n[nH]cc2[C@@H](CC)N1S(=O)(=O)c1ccc(Cl)cc1` [(4R,6S)-5-(4-chlorophenylsulfonyl)-4,6-diethyl-4,5,6,7-tetrahydro-1H-pyrazolo[4,3-c]pyridine], the IC50 is less than 50 nM.
Regarding `CC[C@@H]1c2cn[nH]c2C(=O)[C@H](CC)N1S(=O)(=O)c1ccc(Cl)cc1` [(4R,6S)-5-(4-chlorophenylsulfonyl)-4,6-diethyl-5,6-dihydro-1H-pyrazolo[4,3-c]pyridin-7(4H)-one], the IC50 was less than 50 nM.
In the case of `C[C@@H]1c2cn[nH]c2C[C@H](C)N1S(=O)(=O)c1ccc(Cl)cc1` [(4R,6S)-5-(4-chlorophenylsulfonyl)-4,6-dimethyl-4,5,6,7-tetrahydro-1H-pyrazolo[4,3-c]pyridine], the IC50 is less than 50 nM.
Turning to `CC[C@@H]1c2cn[nH]c2/C(=N\O)[C@H](CC)N1S(=O)(=O)c1ccc(Cl)cc1` [(4R,6S,Z)-5-(4-chlorophenylsulfonyl)-4,6-diethyl-5,6-dihydro-1H-pyrazolo[4,3-c]pyridin-7(4H)-one oxime], the IC50 fell in the range of 50 to 150 nM.
Take `CC[C@@H]1Cc2[nH]ncc2[C@H](CC)N1S(=O)(=O)c1ccc(Cl)cc1` [(4S,6R)-5-(4-chlorophenylsulfonyl)-4,6-diethyl-4,5,6,7-tetrahydro-1H-pyrazolo[4,3-c]pyridine]: the IC50 lay in the range of 50 to 150 nM.
As for `CC[C@@H]1C(=O)c2[nH]ncc2[C@H](CC)N1S(=O)(=O)c1ccc(Cl)cc1` [(4S,6R)-5-(4-chlorophenylsulfonyl)-4,6-diethyl-5,6-dihydro-1H-pyrazolo[4,3-c]pyridin-7(4H)-one], the figure is 150 to 300 nM; as for `C[C@H]1Cc2[nH]ncc2[C@H](C)N1S(=O)(=O)c1ccc(Cl)cc1` [(4S,6S)-5-(4-chlorophenylsulfonyl)-4,6-dimethyl-4,5,6,7-tetrahydro-1H-pyrazolo[4,3-c]pyridine], less than 50 nM.
Take `O=S(=O)(c1ccc(Cl)cc1)N1Cc2cn[nH]c2CC1CO` (stereo not drawn) [(5-(4-chlorophenylsulfonyl)-4,5,6,7-tetrahydro-1H-pyrazolo[4,3-c]pyridin-6-yl)methanol]: the IC50 was 150 to 300 nM.
In the case of `CC[C@@H]1c2cn[nH]c2C[C@@H](COC(=O)N(C)C)N1S(=O)(=O)c1ccc(Cl)cc1` [((4R,6S)-5-(4-chlorophenylsulfonyl)-4-ethyl-4,5,6,7-tetrahydro-1H-pyrazolo[4,3-c]pyridin-6-yl)methyl dimethylcarbamate], the IC50 was in the range of 150 to 300 nM.
As for `O=S(=O)(c1ccc(Cl)cc1)N1[C@@H](CO)Cc2[nH]ncc2[C@H]1CO` [((4S,6R)-5-(4-chlorophenylsulfonyl)-4,5,6,7-tetrahydro-1H-pyrazolo[4,3-c]pyridine-4,6-diyl)dimethanol], the IC50 was in the range of 150 to 300 nM.
As for `CC[C@@H]1Cc2[nH]ncc2[C@@H](COC(=O)N(C)C)N1S(=O)(=O)c1ccc(Cl)cc1` [((4S,6R)-5-(4-chlorophenylsulfonyl)-6-ethyl-4,5,6,7-tetrahydro-1H-pyrazolo[4,3-c]pyridin-4-yl)methyl dimethylcarbamate], the IC50 is 150 to 300 nM.
For `CC[C@H]1c2cn[nH]c2C[C@@H](COC(=O)N(C)C)N1S(=O)(=O)c1ccc(Cl)cc1` [((4S,6S)-5-(4-chlorophenylsulfonyl)-4-ethyl-4,5,6,7-tetrahydro-1H-pyrazolo[4,3-c]pyridin-6-yl)methyl dimethylcarbamate], the IC50 is less than 50 nM.
